From patent US20180169045A1, “AMINO ACID COMPOSITIONS AND METHODS FOR THE TREATMENT OF LIVER DISEASES” (AXCELLA HEALTH INC., priority 2016, published 2018)

Key:
[1] = test system: LX-2 hepatic stellate cells; assay: TGFβ1-induced fibrogenic gene expression (Col1a1, Acta2, Timp2) in LX-2 cells, qRT-PCR; type: cell-based; design: key to Col1a1 gene expression, Mean: relative expression normalized to β-actin by ΔΔCt method; conditions: for Col1a1 gene expression, Mean: TGFβ1 Yes
[2] = test system: STAM™ mice; assay: STAM mouse NASH model (Example 6): activated hepatic stellate cells, α-smooth muscle actin staining; type: in vivo; conditions: individual animals
Experimental: Amino Acid Composition A-1 and Obeticholic acid (6α-ethyl-chenodeoxycholic acid; “OCA”) were tested for their ability to treat NASH in the STAM™ model (Stelic Institute & Co., Tokyo, Japan; Saito K. et al., 2015 Sci Rep 5:12466). Two additional groups of normal C57BL/6 mice fed standard chow and vehicle treated STAM™ mice were included as controls. All animals receiving treatment or vehicle were treated starting at 6 weeks until 9 weeks of age. Compounds were administered via oral gavage, with a dose volume of 10 ml/kg. Amino Acid Composition A-1 was administered twice daily at a dose of 1500 mg/kg, and OCA was administered once daily at a dose of 30 mg/kg.
STAM™ is a model for non-alcoholic steatohepatitis (NASH) and hepatocellular carcinoma (HCC), developed by SMC Laboratories, Inc. and created by the combination of chemical and dietary interventions using C57BL/6 mice (Saito K. et al., 2015 Sci Rep 5:12466). Mice are treated with a low dose of streptozotocin at birth and fed a high fat diet starting at 4 weeks. Evidence of fatty liver is present by 5 weeks, followed by NASH by 7 weeks and fibrosis by 9 weeks. […]
Liver sections of all mice were stained for the marker α-smooth muscle actin (αSMA) to identify activated hepatic stellate cells. Images were quantified using the percent of positively stained area was used as a measure of stellate cell activation. […]

[3] = test system: FATZO mice; assay: FATZO mouse NASH model (Example 15): liver histology (NAS, fibrosis score, Sirius Red, Oil Red O); type: in vivo; conditions: FATZO mice on WDF, 4 weeks
Source text: NASH was induced in 60 male FATZO mice by a western diet (Research Diet # D12079B; fat 40% kcal, protein 17% kcal, carbohydrate 43% kcal) supplemented with 5% fructose in the drinking water (WDF) during a 16 week induction phase. Diets and water were available ad libitum. Littermate control male FATZO mice fed with a control diet (n=6, Purina #5008; fat 17% kcal, protein 27% kcal, carbohydrate 56% kcal) and sterile water were set up for control purpose. Mice were housed in plastic cages with microisolator. Sterilized bedding was replaced once a week. Mice were housed three per cage and maintained on a twelve hour light cycle throughout study duration. Room temperature was monitored daily and maintained at 22-25° C. Body weight was recorded every week during the induction phase. […]
[…], […]+G, LRQNAC, OCA and Vehicle were administered by oral gavage at a volume of 10 mL/kg throughout the study. Dosages were calculated by daily body weight. […]
The livers were evaluated using the NASH liver criteria for scoring. In this mouse study, one cross section of liver for each case was analyzed with the NASH score system. […] The NAS can range from 0 to 8 and is calculated by the sum of scores of steatosis (0-3), lobular inflammation (0-3) and hepatocyte ballooning (0-2) from H&E stained sections. Fibrosis was scored (0-4) from picrosirius red stained slides. […]

[4] = individual amino acid at 1X HMDB concentration
[5] = individual amino acid at 50X HMDB concentration

Row | SMILES | Col1a1 gene expression, Mean [1, 4] | Col1a1 gene expression, Mean [1, 5] | Activated hepatic stellate cells (mean positively stained area, α-smooth muscle actin): raw data [2] | NAFLD activity score (NAS) compared to vehicle, in words [3] | Col1a1 expression of individual amino acids, in words ([1]; individual amino acid at 50× HMDB derived concentration)
1 | NC(=O)CC[C@H](N)C(=O)O [GLN] | 2.340 | 2.194 | – | – | –
2 | CC[C@H]1[C@@H](O)[C@@H]2[C@H](CC[C@]3(C)[C@@H]([C@H](C)CCC(=O)O)CC[C@@H]23)[C@@]2(C)CC[C@@H](O)C[C@@H]12 [OCA, 6α-ethyl-chenodeoxycholic acid] | – | – | 1.5 | no significant effect | –
3 | N[C@@H](CS)C(=O)O [CYS] | 2.491 | 1.695 | – | – | –
4 | CC(C)C[C@H](N)C(=O)O [LEU] | 1.901 | 2.372 | – | – | –
5 | CC(C)[C@H](N)C(=O)O [VAL] | 2.093 | 2.203 | – | – | –
6 | N=C(N)NCCC[C@H](N)C(=O)O [ARG] | 1.620 | 1.970 | – | – | –
7 | N[C@@H](CS)C(=O)O [Cysteine, L-Cysteine] | – | – | – | – | significant decrease
